Laboratory results from PMC8706998, “Lipid Nanocarriers-Loaded Nanocomposite as a Suitable Platform to Release Antibacterial and Antioxidant Agents for Immediate Dental Implant Placement Restorative Treatment” (Pharmaceutics, 2021).

Experiments:
[1] = QRC and CPX solubility studies in aqueous media; format: physicochemical; settings: for solubility at 120 min: 37 °C, pH 5.5, aqueous with cosolvent or surfactant or cyclodextrin, thermodynamic from solid, 37 ± 0.5 °C
Experimental: QRC, in excess, was added to each medium (1 mL) until precipitation occurred. […] The solubility tests were performed in triplicate. Results are reported as means ± SE.

[2] = cited from earlier work
[3] = Screening of the liquid lipids: visual evaluation of QRC dissolution (5% w/w); format: physicochemical; settings: QRC 5% w/w (5:95)
Experimental: Labrasol®, Capryol PGMC®, Plurol®, Maisine®, Labrafil® M 1944 CS, and PEG-18 G/C were selected as liquid lipids to evaluate their ability to completely dissolve the desired amount of QRC (5% w/w). Briefly, 50 mg of QRC was added to 950 mg of each lipid. Each mixture was then ultrasonicated (Emerson Branson 1200, Branson, Brookfield, USA) for 15 min, allowing QRC powder disaggregation. Then, mixtures were maintained under magnetic stirring (200 rpm) and kept in a silicone thermostatic bath heated up to 60 °C (Heidolph MR3001K, Schwabach, Germany) for 30 min. After cooling at room temperature, samples were evaluated in terms of appearance and clearness.

[4] = QRC stability after UV irradiation by EPR spectroscopy; format: physicochemical
Experimental: EPR measurements were carried out on 25 mg of QRC and BioQ-CPX at room temperature using a Bruker ELEXSYS E-500 spectrometer (Bruker, Billerica, MA, USA) operated at 9.8 GHz (X-band), operating at 6 mW microwave power and 0.15 mT modulation amplitude. To evaluate the effects of light exposure in the samples, UV-A/UV-B irradiator alternatively equipped with lamps of 25 W and 50 W (Light-Emitting Diode Philips, Amsterdam, The Netherlands) was used. Preliminarily, the paramagnetic center of QRC (pure drug) before and after 20 min of UV irradiation (50 W) was characterized. Afterwards, to evaluate the BioQ-CPX capability in preserving QRC from light exposure, aliquots of QRC and BioQ-CPX were irradiated by 25 W or 50 W lamps over time. […] UV irradiation was accomplished up to 60 min for all samples and EPR analysis was carried out every 5 min. Signals were normalized to the QRC mass contained in each sample. Data are reported as mean ± SE (n = 3).

[5] = Ex vivo permeation/penetration experiments in Franz-type cells; format: in vitro ADME, pig; settings: from 30 mg BioQ-CPX
Experimental: Tissue specimens were obtained from the vestibular area of the retromolar trigone derived from 6–8-month-old pigs supplied by the Municipal Slaughterhouse of Villabate (Palermo, Italy) since withdrawn from animals intended for human consumption. By a refrigerated transport box, the specimens were immediately transferred to the laboratory within 1 h from animal sacrifice and surgically treated to remove both adipose and connective tissues in excess. Afterward, they were dipped for 30 min in a 5% THR (w/v) isotonic solution and then stored at −80 °C for a minimum period of one week. Before the permeation/penetration experiments, tissue samples were accurately washed to remove the cryoprotectant, and, subsequently, thermal shocked to obtain the buccal mucosa. Briefly, tissue samples were dipped for 30 s in a pre-warmed (70 °C) isotonic solution, and then the mucosa was carefully peeled off from the connective tissue, obtaining the heat-separated epithelium along with the intact basal lamina. Finally, it was equilibrated in an isotonic solution for 3 h by replacing the medium every 15 min to remove all the biological matter, which could affect the analysis, before use.
The ex vivo permeation/penetration studies were carried out using vertical Franz-type diffusion cells. Briefly, appropriate sections of buccal mucosa were mounted between the donor and the acceptor chambers filled with 1 mL of citrate buffer pH 5.5 and 15 mL of citrate buffer pH 5.5 amended with acetic acid 0.1% (v/v), Acys 0.002% (w/v), and β-CD 3% (w/v). The whole system was equilibrated at 37 ± 0.5 °C for 30 min. Afterward, the medium was removed from the donor compartment, promptly replaced with 30 mg of BioQ-CPX, and soaked with 0.2 mL of citrate buffer pH 5.5. Every 30 min, aliquots (0.5 mL) were withdrawn from the acceptor chamber and immediately replaced with the same volume of fresh acceptor fluid to maintain the sink conditions. Experiments were carried out at 37 ± 0.5 °C in the dark and under constant stirring, being stopped at different time points ranging from 1 to 6 h. The amount of permeated QRC and CPX were quantified by UV–Vis analysis. Data are reported as means ± SE (n = 6).
Briefly, the mucosa was dipped into 2 mL of methanol and warmed up to 60 °C. The extraction procedure was performed twice, and the collected extraction liquors were transferred into a 10 mL flask and brought to volume with fresh methanol. Thus, QRC and CPX amounts were determined by UV–Vis analysis. Results are reported as means ± SE.

[6] = parameters: method as in doi:10.1016/j.jfoodeng.2010.04.001; settings: Water pH 7; cited from earlier work
[7] = QRC stability assay in aqueous environments (UV-Vis absorbance at 360 nm); format: physicochemical; settings: for decrease of absorbance ratio at 360 nm: QRC 0.01 mg/mL, room temperature, after 6 h
Experimental: QRC degradation rate was investigated in: (i) PBS pH 7.4 containing 10% v/v of DMSO (solvent A) and (ii) citrate buffer pH 5.5 solution amended with either 10% v/v of DMSO (solvent B) or 10% v/v of DMSO and 0.002% w/v of ACys (solvent C). The prepared QRC aqueous solutions (0.01 mg/mL) were kept at room temperature for 6 h in quartz cuvette located in the UV–Vis spectrophotometer (Shimadzu 1700 instrument, Kyoto, Japan). At scheduled time intervals (10 min), QRC spectra were recorded (from 200 to 700 nm) to highlight any changes in terms of sharp and absorption peaks. Results were reported as absorbance variation at lambda max (360 nm) over time according to the following equation: Abs variation %=Abstn/Abst0×100 where Abst0 and Abstn are the QRC absorbance recorded initially and at each time point, respectively. The stability assays were performed in triplicate. Results are reported as means ± SE.

Compound: O=c1c(O)c(-c2ccc(O)c(O)c2)oc2cc(O)cc(O)c12 [QRC, quercetin]
- solubility at 120 min ([1]; Citrate buffer pH 5.5/ACys plus DMSO 10% v/v): 0.029 mg/mL
- solubility at 120 min ([1]; Citrate buffer pH 5.5/ACys plus β-CD 2% w/v): 0.083 mg/mL
- solubility at 120 min ([1]; Citrate buffer pH 5.5/ACys plus β-CD 3% w/v): 0.103 mg/mL
- solubility enhancement compared to water solubility ([1]; in presence of β-CD 2%): 42 fold
- logP [2]: 1.50
- Appearance of QRC-liquid lipid mixture ([3]; Capryol PGMC): Opalescent
- Appearance of QRC-liquid lipid mixture ([3]; Labrafil M 1944 CS): Opalescent
- Appearance of QRC-liquid lipid mixture ([3]; Labrasol): Clear
- Appearance of QRC-liquid lipid mixture ([3]; Maisine): Opalescent
- Appearance of QRC-liquid lipid mixture ([3]; PEG-18 G/C): Slightly Opalescent
- Appearance of QRC-liquid lipid mixture ([3]; Plurol): Opalescent
- UV exposure time until Hpp plateau (antioxidant power exhausted) ([4]; 25 W or 50 W lamp, irradiation up to 60 min): 25 min
- EPR amplitude Hpp normalized to mass ([4]; 20 min UV irradiation, 50 W lamp): 1.018 u.a.
- EPR amplitude Hpp normalized to mass ([4]; not irradiated): 0.054 u.a.
- maximum amount accumulated into the mucosa ([5]; after 5 h): about 5 % of drugs dose
- amount accumulated into the mucosa ([5]; first hour from application): about 4 % of dose
- Solubility [6]: 0.002 [52] mg/mL
- decrease of absorbance ratio at 360 nm ([7]; PBS pH 7.4 + 10% v/v DMSO): 42%
- QRC stability over time ([7]; citrate buffer pH 5.5 + 10% v/v DMSO + 0.002% w/v ACys): improved
- decrease of absorbance ratio at 360 nm ([7]; citrate buffer pH 5.5 + 10% v/v DMSO): 25%
